In patent EP1900728A1 (Genecare Research Institute Co., Ltd, priority 2005, dated 2006):
pIC50: −log10 of the molar value. Like-named read-outs stand apart in the source and are kept apart here.

Tests used:
[1] = system: ICAM-1 expression in HT-29 cells; assay: Measurement of ICAM-1 expressing activity (TNFα-induced ICAM-1 expression, cell ELISA); type: cell-based; details: Homo sapiens, Table 6, cell activity inhibition test by method (3), read-out: EVALUATION (IC50 class, inhibition of cell activity)
Method: Method 2: Measurement of ICAM-1 expressing activity
2.0 x 10^4 HT-29 cells (ATCC) were plated onto a 96-well plate, and the cells were cultured for 48 hours using a McCoy' 5A medium (GIBCO) containing 10% inactivated fetal calf serum. The culture medium was removed, a culture medium containing a compound to be evaluated (final DMSO concentration of 0.5%) was added, and this was incubated at 37°C for 30 minutes. Thirty ng/mL of human TNFα (GIBCO) was added, and this was incubated at 37°C for 4 hours. After washing once with a washing solution (PBS containing 0.05% Tween 20), ice-cooled methanol was added, and this was left on ice for 10 minutes and then fixed. After removing methanol, PBS containing 1% BSA was added, and blocking was performed by letting this stand at room temperature for 30 minutes. Anti-ICAM-1 antibody (Santa Cruz Biotechnology) was added, and this was left to stand at room temperature for 1 hour. After washing with the washing solution, POD-labeled secondary antibody was added, and this was left to stand at room temperature for 30 minutes. This was washed, 100 µL of 100 mM citric acid buffer (pH4.2) containing 1 mM TMBZ and 0.03% H2O2 was added, and this was reacted at room temperature for 15 minutes. The reaction was terminated with 100 µL of 2 N H2SO4, and the absorbance at 450 nm was measured using ARVO-HTS (Perkin Elmer).
When cells are stimulated with TNFα, IκBα is degraded after ubiquitination resulting in the activation of NFκB and the promotion of the expression of adhesion factor ICAM-1. Therefore, the suppression of ICAM-1 expression described above serves as an indicator to determine the effectiveness of the compound in the cells.

[2] = biological target: T1, IκBα ubiquitinating enzyme (SCF complex: ROC1, Cullin1, Skp1, His-TrCP1; with E1, UbcH5b) (Homo sapiens, UniProt P62877+P63208+Q13616+Q9Y297); assay: Measurement of ubiquitinating enzyme activity (IκBα ubiquitination, time-resolved fluorescence with Eu(K)-labeled ubiquitin and XL665-labeled anti-GST antibody); type: biochemical
T1 construct: His (polyhistidine); made in house; host or cells: insect cells (baculovirus) for the SCF complex and His-E1; E. coli for His-UBCH5b
Outline: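 Human SCF complex with E1 and UbcH5b ubiquitinated GST-IκBα pre-phosphorylated by IKKβ (2 mM ATP, pH 7.4, 1 h, RT), with Eu(K)-ubiquitin, 30 min RT. Stopped with EDTA, XL665 anti-GST added for 2 h; 665/620 nm TR-FRET ratio. % inhibition versus no-compound control and no-SCF blank gave IC50.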

[3] = enzyme activity inhibition test, method (1), Table 5, read-out: EVALUATION

T1 sequence (Q9Y297 whole entry): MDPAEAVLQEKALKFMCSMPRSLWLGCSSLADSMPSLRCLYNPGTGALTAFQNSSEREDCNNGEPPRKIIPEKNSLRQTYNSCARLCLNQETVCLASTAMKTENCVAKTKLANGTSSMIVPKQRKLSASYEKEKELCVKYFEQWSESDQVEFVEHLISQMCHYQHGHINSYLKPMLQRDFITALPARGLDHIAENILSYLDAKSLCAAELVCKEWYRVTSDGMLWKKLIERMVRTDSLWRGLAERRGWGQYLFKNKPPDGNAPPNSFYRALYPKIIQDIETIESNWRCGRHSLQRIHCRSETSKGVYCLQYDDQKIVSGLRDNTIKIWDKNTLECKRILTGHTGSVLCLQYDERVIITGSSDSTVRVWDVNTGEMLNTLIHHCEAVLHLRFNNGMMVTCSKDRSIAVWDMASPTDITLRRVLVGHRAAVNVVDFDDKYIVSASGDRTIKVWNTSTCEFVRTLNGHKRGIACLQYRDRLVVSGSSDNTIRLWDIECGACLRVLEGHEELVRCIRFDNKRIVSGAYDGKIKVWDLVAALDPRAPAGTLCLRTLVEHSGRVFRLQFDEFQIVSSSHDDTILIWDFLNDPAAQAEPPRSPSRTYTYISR
T1 sequence (Q13616 whole entry): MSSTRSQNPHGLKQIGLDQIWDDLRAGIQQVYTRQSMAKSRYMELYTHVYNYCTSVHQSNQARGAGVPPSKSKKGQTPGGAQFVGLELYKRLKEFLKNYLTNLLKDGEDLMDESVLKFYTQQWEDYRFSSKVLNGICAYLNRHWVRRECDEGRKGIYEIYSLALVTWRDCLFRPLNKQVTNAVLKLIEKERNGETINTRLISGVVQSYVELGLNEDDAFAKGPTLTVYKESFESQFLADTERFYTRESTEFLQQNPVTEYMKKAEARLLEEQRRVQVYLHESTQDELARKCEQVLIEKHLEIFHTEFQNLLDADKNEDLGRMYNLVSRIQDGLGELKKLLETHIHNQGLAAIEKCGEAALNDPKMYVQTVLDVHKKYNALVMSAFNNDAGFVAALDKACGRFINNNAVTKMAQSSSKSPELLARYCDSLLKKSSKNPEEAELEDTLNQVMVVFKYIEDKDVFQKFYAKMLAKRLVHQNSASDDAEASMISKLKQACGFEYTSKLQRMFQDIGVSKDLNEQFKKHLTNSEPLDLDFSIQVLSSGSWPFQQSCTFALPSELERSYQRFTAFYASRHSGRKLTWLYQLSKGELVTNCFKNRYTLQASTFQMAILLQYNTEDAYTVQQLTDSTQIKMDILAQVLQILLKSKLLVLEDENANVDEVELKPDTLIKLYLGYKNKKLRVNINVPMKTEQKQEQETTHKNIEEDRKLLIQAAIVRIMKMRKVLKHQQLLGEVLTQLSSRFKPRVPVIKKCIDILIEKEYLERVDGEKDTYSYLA
T1 sequence (P63208 whole entry): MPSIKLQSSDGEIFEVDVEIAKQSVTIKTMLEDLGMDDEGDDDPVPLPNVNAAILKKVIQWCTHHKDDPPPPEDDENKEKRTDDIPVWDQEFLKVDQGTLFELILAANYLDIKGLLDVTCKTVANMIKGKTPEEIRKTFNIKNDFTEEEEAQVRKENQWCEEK
T1 sequence (P62877 whole entry): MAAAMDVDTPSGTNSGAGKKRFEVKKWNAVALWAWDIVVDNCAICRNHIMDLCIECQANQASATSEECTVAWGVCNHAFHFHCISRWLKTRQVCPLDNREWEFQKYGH

SMILES	pIC50 [1]	pIC50 [2, 3]	pIC50 [2]
CCOC(=O)COc1ccc(/C=C2\C(=O)N(c3ccc(C(=O)O)cc3)N=C2C)cc1 [Compound 540]	> 4.40	> 5.00	–
COCC1=NN(c2ccc(C(=O)O)cc2)C(=O)/C1=C\c1ccc(CO)o1 [Compound 328]	> 5.00	> 5.00	–
CC1=NN(c2ccc(C(=O)O)cc2)C(=O)/C1=C\c1ccc(-c2ccccc2Cl)o1 [Compound 456]	> 5.00	> 5.00	–
COCC1=NN(c2ccc(C(=O)O)cc2)C(=O)/C1=C\c1ccc(-n2cncn2)cc1 [Compound 243]	> 5.00	> 5.00	–
O=C(O)c1ccc(N2N=C(c3ccoc3)/C(=C/c3nccs3)C2=O)cc1 [Compound 249]	> 4.40	4.70 to 5.00	–
CCCCC1=NN(c2ccc(C(=O)O)cc2)C(=O)/C1=C\c1ccc(-n2ccnc2)cc1 [Compound 302]	4.70 to 5.00	> 5.00	–
COc1ccc(C2=NN(c3ccc(C(=O)O)cc3)C(=O)/C2=C\c2ccc(N3CCCC3)cc2)cc1OC [Compound 281]	4.70 to 5.00	> 5.00	–
CC1=NN(c2cccc(C(=O)O)c2)C(=O)/C1=C\c1ccc2c(ccn2Cc2ccccc2)c1 [Compound 494]	> 4.40	> 5.00	–
COc1ccc(C2=NN(c3ccc(C(=O)O)cc3)C(=O)/C2=C\c2ccc(CO)o2)cc1OC [Compound 280]	> 4.40	4.70 to 5.00	–
COCCC1=NN(c2ccc(C(=O)O)cc2)C(=O)/C1=C\c1ccc(-c2cnn(C)c2)o1 [Compound 512]	> 4.40	4.70 to 5.00	–
CCOC(=O)c1ccc(COc2ccc(/C=C3\C(=O)N(c4ccc(S(N)(=O)=O)cc4)N=C3C)cc2OC)o1 [Compound 154]	> 5.00	> 5.00	–
CC1=NN(c2ccc(C(=O)O)cc2)C(=O)/C1=C\c1ccc(N2CCCC2)cc1 [Compound 256]	> 4.40	4.70 to 5.00	–
COC(=O)N1CCN(c2ccc(C=C3C(=O)N(c4ccccc4)N=C3c3ccc(OC)c(OC)c3)cc2)CC1 [Compound 33]	> 4.40	–	4.70 to 5.00
CCOC(=O)COc1ccc(C=C2C(=O)N(c3ccc(S(N)(=O)=O)cc3)N=C2C)cc1 [Compound 215]	4.70 to 5.00	–	4.70 to 5.00
COc1cc(/C=C2\C(=O)N(c3ccc(C(=O)O)cc3)N=C2Cc2ccccc2)ccc1O [Compound 263]	4.70 to 5.00	4.70 to 5.00	–
COc1cc(/C=C2\C(=O)N(c3ccc(S(N)(=O)=O)cc3)N=C2C)ccc1OS(=O)(=O)c1ccc(C)cc1 [Compound 202]	> 4.40	4.70 to 5.00	–
COc1cc(/C=C2\C(=O)N(c3ccccn3)N=C2C)ccc1O [Compound 129]	> 5.00	> 4.40	–
O=C(O)c1ccc(N2N=C(c3ccncc3)/C(=C/c3ccc(N4CCCC4)cc3)C2=O)cc1 [Compound 287]	4.70 to 5.00	> 5.00	–
CCCCC1=NN(c2ccc(C(=O)O)cc2)C(=O)/C1=C\c1ccc(-n2cccn2)cc1 [Compound 305]	4.70 to 5.00	> 5.00	–
COc1cc(/C=C2\C(=O)N(c3ccccc3)N=C2Cc2ccccc2)ccc1OCc1ccccc1 [Compound 24]	> 4.40	4.70 to 5.00	–
O=C1/C(=C\c2ccc3ccccc3c2)C(C2CC2)=NN1c1ccccc1 [Compound 70]	> 4.40	4.70 to 5.00	–
CC1=NN(c2ccc(C(=O)O)cc2)C(=O)/C1=C\c1ccc(-n2ccnc2)cc1 [Compound 258]	4.70 to 5.00	> 5.00	–
O=C(O)c1ccc(N2N=C(c3ccoc3)/C(=C/c3ccc(-c4cnn(Cc5ccccc5)c4)o3)C2=O)cc1 [Compound 492]	4.70 to 5.00	> 5.00	–
CCCCC1=NN(c2cccc(C(=O)O)c2)C(=O)/C1=C\c1ccc2[nH]ccc2c1 [Compound 481]	> 4.40	> 5.00	–

SMILES	pIC50 [1]	pIC50 [2, 3]	pIC50 [2]
O=C(O)c1ccc(N2N=C(c3ccoc3)/C(=C/c3ccc(CO)o3)C2=O)cc1 [Compound 247]	> 4.40	> 5.00	–
CC1=NN(c2ccc(C(=O)N3CCC(CO)CC3)cc2)C(=O)/C1=C\c1ccc2c(c1)OCCO2 [Compound 387]	> 4.40	4.70 to 5.00	–
COc1cc(C=C2C(=O)N(c3ccc(C(=O)O)cc3)N=C2c2ccc(F)cc2)ccc1OCc1ccccc1 [Compound 326]	> 4.40	–	> 5.00
CC1=NN(c2ccc(C(=O)O)cc2)C(=O)/C1=C\c1ccc(F)cc1 [Compound 351]	> 4.40	4.70 to 5.00	–
O=C(O)c1ccc(N2N=C(C3CC3)/C(=C/c3ccc(-n4cncn4)cc3)C2=O)cc1 [Compound 323]	> 4.40	> 5.00	–
CCCCC1=NN(c2ccccc2)C(=O)/C1=C\c1ccc(CO)o1 [Compound 56]	4.70 to 5.00	4.70 to 5.00	–
COC(=O)N1CCN(c2ccc(C=C3C(=O)N(c4ccc(C(=O)O)cc4)N=C3C)cc2)CC1 [Compound 254]	> 4.40	–	> 5.00
CC1=NN(c2ccc(C(=O)O)cc2)C(=O)/C1=C\c1ccc2c(ccn2C(=O)c2ccccc2)c1 [Compound 528]	> 4.40	> 5.00	–
CC1=NN(c2ccccc2)C(=O)/C1=C\c1ccc2[nH]ccc2c1 [Compound 127]	> 4.40	> 5.00	–
CC1=NN(c2ccc(C(=O)O)cc2)C(=O)/C1=C\c1ccc(OCC(N)=O)cc1 [Compound 536]	4.70 to 5.00	> 5.00	–
CC1=NN(c2ccc(C(=O)O)cc2)C(=O)/C1=C\c1ccc(CO)o1 [Compound 255]	4.70 to 5.00	> 5.00	–
CC1=NN(c2ccc(S(N)(=O)=O)cc2)C(=O)/C1=C\c1ccc2[nH]ccc2c1 [Compound 133]	> 4.40	> 5.00	–
COCCC1=NN(c2cccc(C(=O)O)c2)C(=O)/C1=C\c1ccc(-c2cnn(C)c2)o1 [Compound 505]	> 4.40	4.70 to 5.00	–
CC1=NN(c2ccc(S(N)(=O)=O)cc2)C(=O)/C1=C\c1ccc(F)cc1 [Compound 118]	4.70 to 5.00	4.70 to 5.00	–
CC1=NN(c2ccc(S(N)(=O)=O)cc2)C(=O)/C1=C\c1ccc(-n2cccn2)cc1 [Compound 150]	> 5.00	> 5.00	–
O=C(O)c1ccc(N2N=C(C3CC3)/C(=C/c3ccc(-n4cccn4)cc3)C2=O)cc1 [Compound 322]	4.70 to 5.00	> 5.00	–
O=C(O)c1ccc(N2N=C(c3ccoc3)/C(=C/c3ccc(-n4cncn4)cc3)C2=O)cc1 [Compound 252]	> 4.40	> 5.00	–
COCC1=NN(c2ccc(C(=O)O)cc2)C(=O)/C1=C\c1ccc(N2CCN(C(=O)OC)CC2)cc1 [Compound 235]	> 5.00	> 5.00	–
CC1=NN(c2cccc(C(=O)N3CCCC(C(=O)O)C3)c2)C(=O)/C1=C\c1ccc2[nH]ccc2c1 (stereo not shown) [Compound 376]	> 4.40	> 5.00	–
CCCCC1=NN(c2ccc(C(=O)O)cc2)C(=O)/C1=C\c1ccc(CO)o1 [Compound 300]	4.70 to 5.00	> 5.00	–
CC1=NN(c2cccc(C(=O)O)c2)C(=O)/C1=C\c1ccc(N2CCN(C(=O)OC(C)(C)C)CC2)cc1 [Compound 437]	> 4.40	4.70 to 5.00	–
COc1cc(/C=C2\C(=O)N(c3ccccc3)N=C2c2ccoc2)ccc1O [Compound 11]	> 4.40	> 5.00	–
Cn1cc(-c2ccc(/C=C3\C(=O)N(c4ccc(C(=O)O)cc4)N=C3c3ccoc3)o2)cn1 [Compound 489]	> 5.00	> 5.00	–
